What all share (experiment): DTP human tumour cell line panel, 48 h
Assay [1] concerns SNB-19 CNS.
The subject of assay [2] is DU-145 prostate.
Assay [3] concerns MCF7 breast.
Assay [4] deals with SN12C renal.
Assay [5] has as its system MDA-MB-231 breast.
In assay [6] the test system is RXF 393 renal.
The test system of assay [7] is SF-295 CNS.
Assay [8] concerns PC-3 prostate.
The test system of assay [9] is OVCAR-5 ovarian.
The subject of assay [10] is UACC-62 melanoma.
The subject of assay [11] is HS 578T breast.

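Following 48 hours of exposure in 96-well plates, responses at five concentrations were used to interpolate endpoints linearly. TGI: total growth inhibition.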 Bounds are passed on as bounds.

Consider `O=P1(Cc2ccccc2)N(Cc2ccccc2)[C@@H]2CCCC[C@H]2N1Cc1ccccc1`, for which the TGI in [1] worked out at 24.2 µM; in assay [2], 27.1 µM; in [3], 23.3 µM; in assay [4], 23.2 µM; in assay [5], 24.9 µM; in assay [6], 26.9 µM. The TGI is 21.1 µM in [7]; 15.3 µM in assay [8]; 24.7 µM in assay [9]; 20.6 µM in assay [10]; 26.5 µM in [11].
In the case of `CC(=O)O[C@@]12CO[C@@H]1CC(O)[C@@]1(C)C(=O)[C@H](O)C3=C(C)C(O)C[C@@](O)(C(OC(=O)c4ccccc4)C12)C3(C)C` (stereo partly specified), the TGI is above 100 µM in [1]; above 100 µM in [2]; above 100 µM in assay [3]; above 100 µM in assay [4]; 66 µM in assay [5]; above 100 µM in [6]. The TGI in [7] is above 51.1 µM; in [8] it was above 100 µM; in assay [9], above 29.1 µM; in assay [10] it was 3.7 µM; in assay [11], 1.18 µM.
For the compound `CCOC(=O)C(Cc1ccc(O)cc1)Nc1nc(=O)c2c(=O)oc(Cl)cc2o1` (stereo unspecified), the TGI stood at 27.3 µM in assay [1]; 51.1 µM in [2]; 17.6 µM in [3]; 36.8 µM in assay [4]; 23.1 µM in assay [5]; 16 µM in [6]. Besides, the total growth inhibition concentration (TGI) was found to be 29.8 µM in assay [7]; 21.4 µM in [8]; 34.7 µM in assay [9]; 28.5 µM in assay [10]; 11.1 µM in [11].
For `O=C1/C(=C\c2cccc(Oc3ccccc3)c2)S(=O)(=O)C(c2ccccc2)N1c1cccc(Cl)c1` (stereo unspecified), the TGI in [1], in assay [2], in [3], in [4], in [5] and in assay [6] was above 100 µM in each case. The concentration for total growth inhibition (TGI) in [7], in assay [8], in assay [9], in assay [10] and in [11] was above 100 µM throughout.
As to `O=c1[nH]c2nc3ccccc3c(=O)n2/c1=C/c1cccs1`, the TGI in [1], in assay [2], in assay [3], in assay [4], in assay [5] and in assay [6] was above 100 µM each time. Further, the TGI in assay [7], in [8], in assay [9], in [10] and in [11] was above 100 µM throughout.
On to `Cc1[nH]n(-c2nc(O)c(-c3ccccc3)c(=O)[nH]2)c(=O)c1CCO`, for which the total growth inhibition concentration (TGI) in assay [1], in assay [2], in assay [3], in [4], in assay [5] and in assay [6] was above 100 µM each time. Also, the TGI in assay [7], in assay [8], in [9], in [10] and in [11] was above 100 µM each time.
Regarding `COc1cc2c(cc1O)NC(=O)[C@@H]1CCCN1C2=O`, the TGI in assay [1], in [2], in [3], in assay [4], in assay [5] and in assay [6] was above 100 µM in each case. For the same compound, the concentration for total growth inhibition (TGI) in [7], in assay [8], in assay [9], in [10] and in assay [11] was above 100 µM in each case.
With `COc1ccc2nc(-c3ccccc3)c(=O)[nH]c2c1`, the TGI in assay [1], in assay [2], in assay [3], in [4], in assay [5] and in [6] was above 100 µM each time. The TGI in assay [7], in [8], in assay [9], in assay [10] and in [11] was above 100 µM each time.
Regarding `COCCn1cnc2c(Cl)nc(Nc3ccccc3)nc21`, the TGI in [1] is above 100 µM; in assay [2] it was above 100 µM; in assay [3], above 100 µM; in assay [4], 95.4 µM; in assay [5] it was 75.6 µM; in assay [6], 47.4 µM. The TGI in assay [7] was above 100 µM; in [8], 56.4 µM; in [9], above 100 µM; in assay [10], 85.1 µM; in [11] it was 61.6 µM.
For `CC(=O)SC(C[N+](=O)[O-])c1ccc2c(c1)OCO2` (stereo unspecified), the total growth inhibition concentration (TGI) stood at 21.5 µM in assay [1]; 33.7 µM in [2]; 6.93 µM in assay [3]; 14.7 µM in assay [4]; 22.3 µM in [5]; 3.41 µM in [6]. Further, the TGI in [7] was determined as 26.1 µM; in [8], 28.9 µM; in assay [9], 16 µM; in assay [10], 11.3 µM; in assay [11], 45.3 µM.
For the compound `CC(=O)Nc1c(C(=N)C#N)ncn1CCO`, the TGI in assay [1], in assay [2], in assay [3], in assay [4], in assay [5] and in assay [6] was above 100 µM throughout. For the same compound, the total growth inhibition concentration (TGI) in [7], in assay [8], in [9], in assay [10] and in assay [11] was above 100 µM throughout.

One may read the TGI as the concentration giving total growth inhibition. A lower TGI goes with more potent growth arrest.

(Values after PubChem BioAssay (NCI).)
